This is an account of results in ChEMBL document CHEMBL1157539, “Thousands of chemical starting points for antimalarial lead identification” (Nature, 2010).

The subject of the test is Plasmodium falciparum. Briefly: GSK_TCMDC: Inhibition of Plasmodium falciparum 3D7 in whole erythrocytes, using parasite LDH activity as an index of growth. The following applies: Plasmodium falciparum, 3D7. It is filed as functional, organism-based.
`CN1CCN(c2ccc(Nc3c4ccccc4nc4ccccc34)cc2)CC1` came in with an XC50 of 645 nM. On to `CCOc1cc(Cc2cnc(N)nc2N)cc(OCC)c1OCC`, for which the XC50 came to 284 nM.

The molecule `CCc1nc(N)nc(N)c1-c1cccc(Cl)c1` displayed an XC50 of 193 nM.

As to `CC(=O)N/N=C/[C@H](CCc1ccccc1)NC(=O)[C@H](CC(C)C)NC(=O)c1cccc(OCCN2CCOCC2)c1`, the XC50 came out at 236 nM.

The molecule `Cc1c(Cl)cccc1S(=O)(=O)Nc1cccc(CCN2CCC(N3CCCCC3)CC2)c1` returned an XC50 of 830 nM.

Molecule `CCN(CC)CCNc1ccnc2[nH]c3ccc([N+](=O)[O-])cc3c12` returned an XC50 of 198 nM.

For `Cc1nc(Nc2ccc(C)c(Cl)c2)c2c(C)noc2n1`, the XC50 is 886 nM. The figure for `CC[C@@H]([C@@H](Cc1cc2ccccc2s1)C(=O)N[C@@H](CCCCNC(=O)OCc1ccccc1)C(=O)Nc1ccccn1)N(O)C=O` is 227 nM.

In the case of `CN1CCc2cc(I)c(O)cc2C1Cc1ccccc1Cl` (configuration not stated), the XC50 came out at 788 nM.

As to `CCn1c(-c2nonc2N)nc2c(Cl)ncc(O[C@H](CCN)c3ccccc3F)c21`, the XC50 came to 1460 nM. Then `Fc1cc(Cl)ccc1Nc1ccnc2cc(-c3ccc(CN4CCOCC4)o3)ccc12`, with 639 nM; and `CN(C)CCOc1cc(NC(=O)Nc2ccc(-c3ccccc3)cc2Cl)ccc1I`, with 245 nM; and `N#CCCn1nc(-c2ccc(Cl)cc2)c2c(c1=O)CCCC2`, with 892 nM. Then `COc1ccc(CC(C)NCC(O)c2cccc(C(F)(F)F)c2)cc1F` (configuration not stated), with 827 nM; and `CCC(=O)Nc1ccc(Nc2nc(C)cc(N3CCCC3)n2)cc1`, with 1320 nM; and `CC(=O)Nc1cccc(C(=O)Nc2cccc(-c3cccc(-c4nc5cc(F)ccc5[nH]4)c3)c2)c1`, with 549 nM.

Regarding `COc1ccc(C=NN=c2cc(C)[nH]c3ccccc23)c(OC)c1`, the XC50 stood at 616 nM. The figure for `CC(C)C(=O)ONC1=NC(=N)N(OCCCOc2cc(Cl)c(Cl)cc2Cl)C(C)(C)N1` is 3.2 nM; for `O=C(NC1CCC(CN2CCC(c3c[nH]c4ccccc34)CC2)CC1)c1cn(Cc2ccccc2)c2ccccc12` (configuration not stated) it is 1130 nM; for `COc1ccc(-c2nonc2NC(=O)c2ccc(C(C)(C)C)cc2)cc1OC` it is 814 nM. The figure for `NC(=O)c1ccc(NC(=O)CN(Cc2ccc(Cl)cc2)S(=O)(=O)c2ccccc2)cc1` is 653 nM.

With `Cc1[nH]c(C)c(-c2ccc(OCc3ccccc3)cc2)c(=O)c1Br`, the XC50 is 280 nM. Consider `Cn1c(=N)n(CC(=O)OCc2ccc(OCc3ccccc3)cc2)c2ccccc21`, for which the XC50 worked out at 81.9 nM. Then `Nc1nc(N)c2c(ccc3[nH]c(-c4ccccc4Cl)nc32)n1`, with 231 nM. Take `Cc1cc(N[C@@H](Cc2ccccc2)C(=O)NCCOc2ccccc2)nc(NCCc2ccccc2)n1`: the XC50 is 1030 nM. In the case of `CC(=O)N(Cc1ccccc1-c1cccc(CNCc2ccc3c(c2)OCO3)c1)C1CCN(Cc2ccccc2)CC1`, the XC50 stood at 1050 nM. The figure for `CN1CC[C@H](N(Cc2ccccc2F)c2ccc(C#N)c(Cl)c2)C1` is 1270 nM.

The molecule `CCCCc1cc(NCc2ccncc2)nc(Nc2ccccc2)n1` had an XC50 of 843 nM.

In the case of `CC1(C)N=C(N)N=C(Nc2ccc(Cl)cc2)N1`, the XC50 came out at 336 nM. The figure for `COc1ccccc1C(=O)Nc1ccc(Nc2nc(C)cc(N3CCOCC3)n2)cc1` is 528 nM. As for `Cc1cc(N[C@@H](Cc2ccccc2)C(=O)Nc2ccccc2)nc(Nc2ccccc2)n1`, the XC50 is 1010 nM. The figure for `c1ccc2[nH]c(-c3ccc(-c4ccc(CN5CCN(CCN6CCOCC6)CC5)cc4)cc3)nc2c1` is 158 nM; for `CCN(CC)CC(O)c1cc(-c2ccc(OC)cc2)nc2cc(Cl)ccc12` (configuration not stated) it is 67.1 nM; for `FC(F)(F)c1ccc2[nH]ccc(=NN=Cc3cccnc3)c2c1` it is 625 nM. The figure for `CC(C)NCc1cccc(-c2cccc(-c3nc4cc(F)ccc4[nH]3)c2)c1` is 285 nM; for `CC(=O)Nc1ncc(C(=O)Nc2cccc(-c3ccc(-c4nc5ccccc5[nH]4)cc3)c2)s1` it is 669 nM; for `Cc1ccc(S(=O)(=O)NC2=NC(=N)N(OCc3ccc(Cl)c(Cl)c3)C(C)(C)N2)cc1` it is 1140 nM. The molecule `CN1CCCN(Cc2cccc(-c3ccc(CNC(=O)c4cccc(Cl)c4)c(F)c3)c2)CC1` came in with an XC50 of 190 nM.

The molecule `O=C(Nc1ccc(-c2csc(-c3nc4ccccc4[nH]3)c2)cc1)Nc1ccc(Cl)c(Cl)c1` gave an XC50 of 402 nM. Molecule `CCCNCc1ccc(-c2ccc(CN(CCOC)C(=O)c3cnc(C)cn3)cc2)nc1` had an XC50 of 1250 nM. Regarding `CCCc1cc(=O)[nH]c(-n2nc(C)cc2NC(=O)c2cc3ccccc3o2)n1`, the XC50 came to 1110 nM. `O=C(Nc1ccc(Cn2ncc(N3CCCNCC3)c(Cl)c2=O)cc1)Nc1cccc(SC(F)(F)F)c1` registered an XC50 of 675 nM. The figure for `Nc1cccc(CNCc2cccc(-c3ccc(-c4nc5ccccc5[nH]4)s3)c2)c1` is 604 nM. Then `CC(CN1CCN(C)CC1)C(=O)Nc1ccc(-c2cccc(-c3nc4cc(F)ccc4[nH]3)c2)cc1` (configuration not stated), with 522 nM. Then `O=C(Nc1ccc(Cl)cc1)N1CCN(C2CCCCC2)CC1`, with 986 nM; and `CN(C)CCN(C)Cc1ccc(-c2ccc(NS(=O)(=O)c3cccc4cccnc34)cc2)cc1`, with 864 nM. The molecule `Cc1[nH]c2ccc(NS(C)(=O)=O)cc2c1C1CCN(CC2CCN(C(=O)/C=C/c3ccc(Cl)c(Cl)c3)CC2)CC1` yielded an XC50 of 684 nM. The figure for `O=C(/C=C/c1ccc(Cl)c(Cl)c1)N1CCC(CCN2CCC(c3nc4cc(O)ccc4[nH]3)CC2)CC1` is 344 nM; for `S=C(NCCCCCN1CCC(c2c[nH]c3ccccc23)CC1)Nc1ccc(Cl)c(Cl)c1` it is 709 nM; for `COc1ccccc1Cn1ccnc1SCC(=O)Nc1cccc(C(F)(F)F)c1` it is 907 nM. With `CCOc1ccc2nc(N(CCCn3ccnc3)C(=O)C=Cc3cccs3)sc2c1`, the XC50 turned out to be 777 nM. Then `CN(C)CCC1CCCc2ccc(NC(=O)Nc3ccc(-c4ccncc4)c4ccccc34)cc21` (configuration not stated), with 1070 nM. Then `C=CCOc1ccc(CNC2CCN(Cc3ccccc3)CC2)cc1Br`, with 1420 nM; and `COc1ccc(-c2ccc(NC(=O)c3cccc(F)c3)cc2)cc1CN1CCCN(C)CC1`, with 672 nM. The figure for `CCCCCCNC(=O)C1Cc2c([nH]c3ccc(Br)cc23)C2(CCN(Cc3ccccc3)CC2)N1` (configuration not stated) is 722 nM; for `CC1CCCN(S(=O)(=O)c2ccc(NC(=O)c3cc(-c4ccccc4O)n[nH]3)cc2)C1` (configuration not stated) it is 757 nM; for `CNC(=O)COc1ccc(Nc2nnc(-c3ccc(C)c(S(=O)(=O)NCC4CCCO4)c3)c3ccccc23)cc1` (configuration not stated) it is 933 nM. `Cc1nnc2c(NC(=O)NC3CCCC3)cc3ccc(-c4cccc(CN(C)C)c4)cc3n12`: the XC50 was 1160 nM.

`COc1ccc2nccc([C@@H](O)CN3CCC(NCCNc4cccc(F)c4)CC3)c2c1`: the XC50 is 176 nM. The figure for `CN1CCN(CCCN(Cc2csc(-c3ccc(CNCc4ccccc4)cc3)n2)S(=O)(=O)c2cccc3cccnc23)CC1` is 1410 nM. Then `COc1ccccc1Cc1c(C)nc2nc(N)nc(N)c2c1C`, with 569 nM; and `COC(=O)c1ccc(CC(C)NCC(O)c2ccc(F)c(Cl)c2)cc1` (configuration not stated), with 863 nM. Regarding `O=C(Nc1ccc(-c2nc3ccccc3[nH]2)cc1)C1CCN(Cc2ccc(F)cc2)CC1`, the XC50 stood at 838 nM. The figure for `CCNc1cc(C(=O)N[C@@H](Cc2cc(F)cc(F)c2)[C@H](O)CNCc2cccc(C(F)(F)F)c2)cc(N2CCCCS2(=O)=O)c1` is 613 nM; for `CCOC(=O)c1c(CN2CCCC2)n(-c2ccccc2)c2cc(Br)c(O)cc12` it is 1010 nM; for `O=C(Nc1ccc(N2CCN(Cc3ccccc3Cl)CC2)cc1)c1ccc([N+](=O)[O-])o1` it is 975 nM. Molecule `Cc1cc(N[C@@H](Cc2ccccc2)C(=O)NCCOc2ccccc2)nc(NCCOc2ccccc2)n1` gave an XC50 of 1360 nM. The figure for `Cc1cccc(CN2CCCC3(CCN(Cc4ccccc4O)C3)C2)c1` (configuration not stated) is 801 nM.

Consider `Cc1cccc2nc(-c3ccc(-c4cccc(CNCc5ccc(CN)cc5)c4)s3)[nH]c12`, for which the XC50 is 606 nM. `COc1cc(-c2nc(-c3ccncc3)c(-c3ccc4c(c3)CCC4=NO)[nH]2)ccc1OCCN1CCCCC1` gave an XC50 of 789 nM.

In the case of `CN1CCN(c2ccc(-c3cccc(NC(=O)c4cccc([N+](=O)[O-])c4)c3)nn2)CC1`, the XC50 is 527 nM. With `CC(C)(C)c1ccc(NC(=O)N[C@@H]2CCN(c3ccnc4ccccc34)C2)cc1`, the XC50 turned out to be 350 nM.

On to `COc1cccc(CNC(=O)c2cc(CNCc3ccccc3)ccc2-c2cccc(CNCc3ccc(-c4ccccc4)cc3)c2)c1`, for which the XC50 is 847 nM. In the case of `O=C(Nc1ccc(Cl)cc1)Nc1ccc(OCC(O)CN2CCCCC2)cc1` (configuration not stated), the XC50 stood at 1160 nM. Then `COc1cccc(-c2csc(C(=O)NCC3CCN(Cc4ccc(C(C)(C)C)cc4)C3)c2)c1` (configuration not stated), with 1180 nM; and `CN1CCCC1CCNc1ncc2c(-c3ccc(NC(=O)Nc4cc(C(F)(F)F)ccc4F)c(F)c3)nn(C)c2n1` (configuration not stated), with 287 nM. Then `Cn1nccc1C(=O)NCCNCc1cccc(-c2cccc(-c3nc4cc(C(F)(F)F)ccc4[nH]3)c2)c1`, with 172 nM; and `COc1cccc(-c2cc(C(F)(F)F)n3ncc(C(=O)Nc4cc(Cl)ccc4O)c3n2)c1`, with 203 nM. With `Clc1ccc(Sc2cncnc2N2CCOCC2)cc1`, the XC50 was determined as 40.2 nM. In turn, `COC(=O)c1c(C#N)c(OC)cc(O)c1CSC[C@H](Nc1nc(-c2ccc([N+](=O)[O-])cc2)cs1)C(=O)NCCN1CCCCC1` showed an XC50 of 1060 nM. The figure for `c1ccc(CCNc2nc(NCC(c3ccccc3)c3ccccc3)c3nc[nH]c3n2)cc1` is 617 nM; for `Cc1ccc2nc(-c3ccc(C(=O)NC4CCN(Cc5ccccc5)CC4)cc3)[nH]c2c1C` it is 729 nM. The figure for `CCCCCN1CCCC1CNS(=O)(=O)c1cccc(C(=O)Nc2cccc(C(F)(F)F)c2)c1` (configuration not stated) is 770 nM; for `CNC(=O)c1cnc(Nc2ccc(OCC(O)CN(C)C)cc2)nc1Nc1cccc(Br)c1` (configuration not stated) it is 121 nM; for `O=C(NC1CCN(CCN2CCc3ccccc3CC2)CC1)c1ccc(-c2ccc(C(F)(F)F)cc2)cc1` it is 935 nM. The figure for `O=S(=O)(NC1CCN(c2ccnc3cc(Cl)ccc23)C1)c1cccc(F)c1` (configuration not stated) is 486 nM; for `CCN(Cc1cccc2ccccc12)c1ccc2nc(N)nc(N)c2c1` it is 3.2 nM.
